From PubChem BioAssay AID190 (DTP/NCI, 2004)
“And” between values parts separate entries of the source, which are not always exact repeats. Equal entries are not always repeated. Toxic doses and inconclusive results are not listed.

System: AKR/Lw mice, AKR lymphoma ip, median survival T/C
Assay: NCI In Vivo Anticancer Drug Screen. Data for tumor model Lymphoma AKR (Transplanted) (intraperitoneal) in AKR/Lw mice
Conditions: endpoint: median survival time, higher = longer survival
Description: The antitumor activity of compounds was measured in mice bearing transplantable tumors. Survival or tumor size were measured and the results are expressed as the measurement made in the treated group (T) divided by the measurement made in the vehicle treated control group (C). The tumor model used in this assay is Lymphoma AKR (Transplanted) (intraperitoneal) in AKR/Lw mice

[1] = dose: 100.0 mg/kg/injection, schedule: Q01DX001 (ip), vehicle: Klucel (hydroxypropylcellulose) (HPC)
[2] = dose: 200.0 mg/kg/injection, schedule: Q01DX001 (ip), vehicle: Klucel (hydroxypropylcellulose) (HPC)
[3] = dose: 400.0 mg/kg/injection, schedule: Q01DX001 (ip), vehicle: Klucel (hydroxypropylcellulose) (HPC)
[4] = dose: 25.0 mg/kg/injection, schedule: Q04DX003 (ip), vehicle: Klucel (hydroxypropylcellulose) (HPC)
[5] = dose: 50.0 mg/kg/injection, schedule: Q04DX003 (ip), vehicle: Klucel (hydroxypropylcellulose) (HPC)
[6] = dose: 100.0 mg/kg/injection, schedule: Q04DX003 (ip), vehicle: Klucel (hydroxypropylcellulose) (HPC)
[7] = dose: 200.0 mg/kg/injection, schedule: Q04DX003 (ip), vehicle: Klucel (hydroxypropylcellulose) (HPC)

## CC[C@]1(O)C[C@H]2CN(CCc3c([nH]c4ccccc34)[C@@](C(=O)OC)(c3cc4c(cc3OC)N(C=O)[C@H]3[C@@](O)(C(=O)OC)[C@H](OC(C)=O)[C@]5(CC)C=CCN6CC[C@]43[C@@H]65)C2)C1
dose: 0.01 mg/kg/injection, schedule: Q10DX002 (ip), vehicle: saline
  T/C: 113 % of control
dose: 0.02 mg/kg/injection, schedule: Q01DX001 (ip), vehicle: saline
  T/C: 110 % of control
dose: 0.02 mg/kg/injection, schedule: Q04DX003 (ip), vehicle: saline
  T/C: 86 % of control
dose: 0.02 mg/kg/injection, schedule: Q10DX002 (ip), vehicle: saline
  T/C: 119 % of control
dose: 0.03 mg/kg/injection, schedule: Q04DX003 (ip), vehicle: saline
  T/C: 93 % of control and 107 % of control and 114 % of control
dose: 0.03 mg/kg/injection, schedule: Q10DX002 (ip), vehicle: saline
  T/C: 119 % of control
dose: 0.05 mg/kg/injection, schedule: Q01DX001 (ip), vehicle: saline
  T/C: 101 % of control
dose: 0.05 mg/kg/injection, schedule: Q04DX003 (ip), vehicle: saline
  T/C: 94 % of control
dose: 0.06 mg/kg/injection, schedule: Q04DX002 (ip), vehicle: saline
  T/C: 110 % of control
dose: 0.06 mg/kg/injection, schedule: Q04DX003 (ip), vehicle: saline
  T/C: 111 % of control and 116 % of control
dose: 0.1 mg/kg/injection, schedule: Q01DX001 (ip), vehicle: saline
  T/C: 103 % of control
dose: 0.1 mg/kg/injection, schedule: Q04DX003 (ip), vehicle: saline
  T/C: 94 % of control
dose: 0.12 mg/kg/injection, schedule: Q01DX001 (ip), vehicle: saline
  T/C: 100 % of control and 111 % of control and 119 % of control
dose: 0.12 mg/kg/injection, schedule: Q01DX009 (ip), vehicle: saline
  T/C: 109 % of control
dose: 0.13 mg/kg/injection, schedule: Q04DX002 (ip), vehicle: water
  T/C: 90 % of control and 95 % of control
dose: 0.2 mg/kg/injection, schedule: Q04DX003 (ip), vehicle: saline
  T/C: 94 % of control
dose: 0.25 mg/kg/injection, schedule: Q01DX009 (ip), vehicle: saline
  T/C: 109 % of control
dose: 0.4 mg/kg/injection, schedule: Q04DX003 (ip), vehicle: saline
  T/C: 118 % of control
dose: 0.5 mg/kg/injection, schedule: Q04DX002 (ip), vehicle: saline
  T/C: 223 % of control
dose: 0.5 mg/kg/injection, schedule: Q04DX002 (ip), vehicle: water
  T/C: 107 % of control and 109 % of control
dose: 0.75 mg/kg/injection, schedule: Q01DX001 (ip), vehicle: saline
  T/C: 157 % of control
dose: 1.0 mg/kg/injection, schedule: Q04DX003 (ip), vehicle: saline
  T/C: 359 % of control
dose: 1.0 mg/kg/injection, schedule: Q10DX002 (ip), vehicle: saline
  T/C: 33 % of control
dose: 1.5 mg/kg/injection, schedule: Q10DX002 (ip), vehicle: saline
  T/C: 68 % of control
dose: 0.2 micrograms/kg/injection, schedule: Q01DX009 (ip), vehicle: saline
  T/C: 103 % of control
dose: 0.5 micrograms/kg/injection, schedule: Q01DX009 (ip), vehicle: saline
  T/C: 100 % of control
dose: 0.6 micrograms/kg/injection, schedule: Q01DX009 (ip), vehicle: saline
  T/C: 96 % of control
dose: 1.0 micrograms/kg/injection, schedule: Q01DX009 (ip), vehicle: saline
  T/C: 86 % of control and 100 % of control
dose: 1.2 micrograms/kg/injection, schedule: Q01DX009 (ip), vehicle: saline
  T/C: 87 % of control
dose: 2.0 micrograms/kg/injection, schedule: Q01DX009 (ip), vehicle: saline
  T/C: 94 % of control
dose: 6.0 micrograms/kg/injection, schedule: Q01DX009 (ip), vehicle: saline
  T/C: 102 % of control and 114 % of control
dose: 15.0 micrograms/kg/injection, schedule: Q01DX009 (ip), vehicle: saline
  T/C: 122 % of control
dose: 20.0 micrograms/kg/injection, schedule: Q01DX009 (ip), vehicle: saline
  T/C: 97 % of control
dose: 25.0 micrograms/kg/injection, schedule: Q01DX009 (ip), vehicle: saline
  T/C: 97 % of control
dose: 30.0 micrograms/kg/injection, schedule: Q01DX009 (ip), vehicle: saline
  T/C: 112 % of control
dose: 50.0 micrograms/kg/injection, schedule: Q01DX009 (ip), vehicle: saline
  T/C: 102 % of control
dose: 60.0 micrograms/kg/injection, schedule: Q01DX009 (ip), vehicle: saline
  T/C: 120 % of control
dose: 100.0 micrograms/kg/injection, schedule: Q01DX009 (ip), vehicle: saline
  T/C: 114 % of control

## O=C(COc1ccc(Cl)c(Cl)c1)N(Cc1ccccc1)Cc1cccnc1
[1]
  T/C: 110 % of control
[2]
  T/C: 108 % of control
[3]
  T/C: 102 % of control

## Clc1nnc(Nc2ccccc2)c2ccccc12
[4]
  T/C: 86 % of control
[5]
  T/C: 98 % of control
[1]
  T/C: 92 % of control
[6]
  T/C: 92 % of control
dose: 100.0 mg/kg/injection, schedule: Q04DX003 (ip), vehicle: saline
  T/C: 100 % of control
[2]
  T/C: 96 % of control
[3]
  T/C: 96 % of control

## CC1(C)CC[N+]1(C)Cc1ccccc1 (centres undefined)
dose: 6.25 mg/kg/injection, schedule: Q01DX001 (ip), vehicle: saline
  T/C: 97 % of control
dose: 12.5 mg/kg/injection, schedule: Q01DX001 (ip), vehicle: saline
  T/C: 100 % of control
dose: 25.0 mg/kg/injection, schedule: Q01DX001 (ip), vehicle: saline
  T/C: 100 % of control

## C=CCN(CC=C)c1ccc(N(CC)CC)cc1
[4]
  T/C: 100 % of control
[5]
  T/C: 94 % of control
[1]
  T/C: 96 % of control
[6]
  T/C: 97 % of control
[2]
  T/C: 92 % of control
[7]
  T/C: 100 % of control

## COC(=O)C1(C)CCC(c2ccc(OC)cc2)CC1=O (centres undefined)
dose: 50.0 mg/kg/injection, schedule: Q01DX001 (ip), vehicle: saline
  T/C: 113 % of control
[5]
  T/C: 93 % of control
dose: 100.0 mg/kg/injection, schedule: Q01DX001 (ip), vehicle: saline
  T/C: 105 % of control
[6]
  T/C: 106 % of control
dose: 200.0 mg/kg/injection, schedule: Q01DX001 (ip), vehicle: saline
  T/C: 105 % of control
[7]
  T/C: 112 % of control

## COc1cc2c(cc1OC)C(CNC(=O)/C=C/c1ccccc1)C2 (centres undefined)
[1]
  T/C: 102 % of control
[6]
  T/C: 96 % of control
[2]
  T/C: 94 % of control
[7]
  T/C: 100 % of control
[3]
  T/C: 89 % of control
dose: 400.0 mg/kg/injection, schedule: Q04DX003 (ip), vehicle: Klucel (hydroxypropylcellulose) (HPC)
  T/C: 100 % of control
